According to the kinase profiling compilation of Christmann-Franck et al. (2016):

Tests used:
Test in all cases: Caliper, Mobility shift assay off-chip
[1] = target: BTK (human) (UniProt Q06187)
[2] = target: CSK (human) (UniProt P41240)
[3] = target: MUSK (human) (UniProt O15146)
[4] = target: CDK3 CCNE1 (human) (UniProt P24864+Q00526)
[5] = target: PTK2B (human) (UniProt Q14289)
[6] = target: AXL (human) (UniProt P30530)
[7] = target: AKT3 (human) (UniProt Q9Y243)
[8] = target: PRKD1 (human) (UniProt Q15139)
[9] = target: STK11 (human) (UniProt Q15831)
Sequence of STK11 (human) (Q15831 whole entry, looked up): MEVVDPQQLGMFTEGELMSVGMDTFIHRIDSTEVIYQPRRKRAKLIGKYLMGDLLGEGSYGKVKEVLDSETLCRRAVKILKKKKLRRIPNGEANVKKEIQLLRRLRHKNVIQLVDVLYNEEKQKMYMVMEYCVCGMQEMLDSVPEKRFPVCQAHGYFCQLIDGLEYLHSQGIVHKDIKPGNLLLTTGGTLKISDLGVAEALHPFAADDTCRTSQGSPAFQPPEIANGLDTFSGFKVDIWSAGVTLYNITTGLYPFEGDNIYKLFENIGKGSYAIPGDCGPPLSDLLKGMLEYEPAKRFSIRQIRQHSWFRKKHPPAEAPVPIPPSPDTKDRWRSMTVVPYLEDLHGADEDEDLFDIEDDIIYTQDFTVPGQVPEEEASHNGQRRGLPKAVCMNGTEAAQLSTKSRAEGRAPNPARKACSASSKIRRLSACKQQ

[10] = target: ACVR1B (human) (UniProt P36896)
Sequence of ACVR1B (human) (P36896 whole entry, looked up): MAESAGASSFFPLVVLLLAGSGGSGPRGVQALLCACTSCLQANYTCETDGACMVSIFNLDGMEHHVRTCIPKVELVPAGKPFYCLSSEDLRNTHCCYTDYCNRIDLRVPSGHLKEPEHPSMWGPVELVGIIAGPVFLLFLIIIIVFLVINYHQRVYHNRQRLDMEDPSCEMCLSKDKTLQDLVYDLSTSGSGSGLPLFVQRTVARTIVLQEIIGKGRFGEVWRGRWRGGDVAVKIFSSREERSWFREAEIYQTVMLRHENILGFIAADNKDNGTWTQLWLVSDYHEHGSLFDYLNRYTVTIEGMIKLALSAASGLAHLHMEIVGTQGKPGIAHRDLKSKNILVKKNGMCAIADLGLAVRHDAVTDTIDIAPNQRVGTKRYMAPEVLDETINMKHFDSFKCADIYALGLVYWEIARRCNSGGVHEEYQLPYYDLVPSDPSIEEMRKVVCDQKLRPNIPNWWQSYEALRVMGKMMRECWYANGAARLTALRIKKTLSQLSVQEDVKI

[11] = target: LYN (human) (UniProt P07948)
[12] = target: PDGFRB (human) (UniProt P09619)
[13] = target: NTRK1 (human) (UniProt P04629)
Sequence of NTRK1 (human) (P04629 whole entry, looked up): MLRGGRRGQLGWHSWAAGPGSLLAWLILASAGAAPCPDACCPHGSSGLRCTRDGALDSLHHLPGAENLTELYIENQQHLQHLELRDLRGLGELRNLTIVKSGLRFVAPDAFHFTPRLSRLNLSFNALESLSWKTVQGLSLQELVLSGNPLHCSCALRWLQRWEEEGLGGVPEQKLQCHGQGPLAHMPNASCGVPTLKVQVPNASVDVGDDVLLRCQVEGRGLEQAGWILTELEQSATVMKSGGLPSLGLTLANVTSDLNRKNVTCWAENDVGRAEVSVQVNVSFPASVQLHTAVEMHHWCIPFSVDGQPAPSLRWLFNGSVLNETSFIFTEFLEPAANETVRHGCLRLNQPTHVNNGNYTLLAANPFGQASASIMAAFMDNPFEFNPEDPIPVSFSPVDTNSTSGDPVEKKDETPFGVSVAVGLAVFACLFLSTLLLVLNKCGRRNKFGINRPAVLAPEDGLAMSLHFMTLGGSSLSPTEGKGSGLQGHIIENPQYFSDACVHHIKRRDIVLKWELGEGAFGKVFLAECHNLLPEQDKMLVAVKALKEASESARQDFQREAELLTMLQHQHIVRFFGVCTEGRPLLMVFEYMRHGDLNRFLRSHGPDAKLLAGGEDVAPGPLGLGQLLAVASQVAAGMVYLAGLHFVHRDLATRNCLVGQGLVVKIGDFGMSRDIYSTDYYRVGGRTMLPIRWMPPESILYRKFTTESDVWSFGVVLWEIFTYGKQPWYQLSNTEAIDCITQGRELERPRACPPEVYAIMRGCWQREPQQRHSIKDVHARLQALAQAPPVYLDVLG

[14] = target: IRAK4 (human) (UniProt Q9NWZ3)
[15] = target: AURKA (human) (UniProt O14965)
[16] = target: PKN2 (human) (UniProt Q16513)
[17] = target: SRPK3 (human) (UniProt Q9UPE1)
Sequence of SRPK3 (human) (Q9UPE1 whole entry, looked up): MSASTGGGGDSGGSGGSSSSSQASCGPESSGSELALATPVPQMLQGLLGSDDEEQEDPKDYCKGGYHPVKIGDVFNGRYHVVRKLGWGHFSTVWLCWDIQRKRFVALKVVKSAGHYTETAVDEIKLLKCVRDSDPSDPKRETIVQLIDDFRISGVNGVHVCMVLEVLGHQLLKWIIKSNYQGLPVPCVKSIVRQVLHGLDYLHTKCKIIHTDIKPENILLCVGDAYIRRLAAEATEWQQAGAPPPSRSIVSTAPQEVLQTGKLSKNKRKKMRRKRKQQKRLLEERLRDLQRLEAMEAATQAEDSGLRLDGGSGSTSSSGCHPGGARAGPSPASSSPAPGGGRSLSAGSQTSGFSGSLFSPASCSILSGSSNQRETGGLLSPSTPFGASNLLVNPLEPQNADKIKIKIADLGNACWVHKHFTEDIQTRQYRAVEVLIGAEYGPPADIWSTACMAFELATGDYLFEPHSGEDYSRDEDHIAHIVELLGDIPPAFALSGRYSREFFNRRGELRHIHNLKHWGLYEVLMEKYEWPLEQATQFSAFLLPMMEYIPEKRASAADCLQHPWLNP

[18] = target: SIK1 (human) (UniProt P57059)
[19] = target: NUAK1 (human) (UniProt O60285)
[20] = target: FLT1 (human) (UniProt P17948)
Sequence of FLT1 (human) (P17948 whole entry, looked up): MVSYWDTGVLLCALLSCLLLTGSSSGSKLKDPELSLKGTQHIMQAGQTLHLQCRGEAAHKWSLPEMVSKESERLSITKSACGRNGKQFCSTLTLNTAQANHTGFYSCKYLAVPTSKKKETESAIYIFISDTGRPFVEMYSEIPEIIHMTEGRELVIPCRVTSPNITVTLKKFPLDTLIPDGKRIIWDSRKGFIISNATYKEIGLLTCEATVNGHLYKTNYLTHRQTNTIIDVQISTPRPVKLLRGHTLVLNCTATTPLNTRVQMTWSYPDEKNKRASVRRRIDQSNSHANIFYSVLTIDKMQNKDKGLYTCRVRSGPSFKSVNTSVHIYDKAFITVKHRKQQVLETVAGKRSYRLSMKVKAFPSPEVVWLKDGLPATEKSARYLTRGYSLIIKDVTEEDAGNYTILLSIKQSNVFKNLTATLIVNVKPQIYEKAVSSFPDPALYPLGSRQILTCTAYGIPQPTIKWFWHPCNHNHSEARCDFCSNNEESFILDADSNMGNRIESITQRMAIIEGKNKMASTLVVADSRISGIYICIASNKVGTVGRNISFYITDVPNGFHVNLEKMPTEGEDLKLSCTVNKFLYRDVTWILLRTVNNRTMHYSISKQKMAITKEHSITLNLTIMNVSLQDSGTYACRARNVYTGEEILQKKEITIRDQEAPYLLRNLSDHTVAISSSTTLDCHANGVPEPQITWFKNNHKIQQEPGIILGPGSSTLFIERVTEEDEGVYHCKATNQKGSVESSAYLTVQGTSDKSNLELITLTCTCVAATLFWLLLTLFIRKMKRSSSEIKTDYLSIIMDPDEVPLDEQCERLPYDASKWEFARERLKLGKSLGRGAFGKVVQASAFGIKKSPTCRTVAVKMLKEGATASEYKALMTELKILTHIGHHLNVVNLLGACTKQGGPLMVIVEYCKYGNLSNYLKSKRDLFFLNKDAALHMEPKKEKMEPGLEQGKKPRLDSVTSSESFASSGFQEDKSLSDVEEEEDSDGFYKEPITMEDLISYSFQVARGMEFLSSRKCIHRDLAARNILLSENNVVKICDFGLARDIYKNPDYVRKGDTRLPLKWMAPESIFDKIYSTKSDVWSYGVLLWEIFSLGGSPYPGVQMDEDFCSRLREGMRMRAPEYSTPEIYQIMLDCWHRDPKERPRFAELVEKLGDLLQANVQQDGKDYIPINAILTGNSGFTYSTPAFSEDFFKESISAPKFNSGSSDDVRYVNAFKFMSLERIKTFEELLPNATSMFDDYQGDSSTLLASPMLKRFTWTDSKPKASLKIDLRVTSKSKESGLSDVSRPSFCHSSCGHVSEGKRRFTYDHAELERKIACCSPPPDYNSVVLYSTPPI

[21] = target: NTRK2 (human) (UniProt Q16620)
[22] = target: SRPK2 (human) (UniProt P78362)
[23] = target: PRKACA (human) (UniProt P17612)
[24] = system: EGFR (human), P00533 [L858R]
[25] = target: PRKD2 (human) (UniProt Q9BZL6)
[26] = target: YES1 (human) (UniProt P07947)
[27] = target: ABL1 (human) (UniProt P00519)
[28] = target: ROS1 (human) (UniProt P08922)
[29] = target: EPHA3 (human) (UniProt P29320)
[30] = target: PAK2 (human) (UniProt Q13177)
Sequence of PAK2 (human) (Q13177 whole entry, looked up): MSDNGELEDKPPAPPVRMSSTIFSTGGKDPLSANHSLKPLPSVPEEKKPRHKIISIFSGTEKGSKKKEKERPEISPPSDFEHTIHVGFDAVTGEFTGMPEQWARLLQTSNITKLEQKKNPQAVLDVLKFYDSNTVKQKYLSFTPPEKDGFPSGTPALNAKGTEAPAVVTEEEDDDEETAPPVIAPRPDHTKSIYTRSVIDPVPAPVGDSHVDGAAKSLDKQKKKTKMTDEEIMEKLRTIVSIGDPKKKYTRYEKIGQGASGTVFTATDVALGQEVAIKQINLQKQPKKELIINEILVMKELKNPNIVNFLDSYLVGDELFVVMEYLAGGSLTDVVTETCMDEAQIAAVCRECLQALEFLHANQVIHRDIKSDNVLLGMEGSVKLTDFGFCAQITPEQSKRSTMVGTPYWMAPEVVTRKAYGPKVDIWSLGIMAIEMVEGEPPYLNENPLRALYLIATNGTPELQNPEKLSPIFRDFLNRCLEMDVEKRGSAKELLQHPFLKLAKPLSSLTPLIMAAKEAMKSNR

[31] = target: CSNK1G1 (human) (UniProt Q9HCP0)
[32] = target: CSNK2A2 (human) (UniProt P19784)
[33] = target: GRK6 (human) (UniProt P43250)
[34] = system: CHEK2 (human), O96017 [R145W]
[35] = target: RPS6KA6 KD1 KD2 (human) (UniProt Q9UK32)
[36] = target: TAOK3 (human) (UniProt Q9H2K8)
[37] = target: PRKCB1 (human) (UniProt P05771)
[38] = target: NEK3 (human) (UniProt P51956)
[39] = target: CAMK2D (human) (UniProt Q13557)
[40] = system: KIT (human), P10721 [V560G]
[41] = target: PASK (human) (UniProt Q96RG2)

Sequence of MUSK (human) (O15146 whole entry, looked up): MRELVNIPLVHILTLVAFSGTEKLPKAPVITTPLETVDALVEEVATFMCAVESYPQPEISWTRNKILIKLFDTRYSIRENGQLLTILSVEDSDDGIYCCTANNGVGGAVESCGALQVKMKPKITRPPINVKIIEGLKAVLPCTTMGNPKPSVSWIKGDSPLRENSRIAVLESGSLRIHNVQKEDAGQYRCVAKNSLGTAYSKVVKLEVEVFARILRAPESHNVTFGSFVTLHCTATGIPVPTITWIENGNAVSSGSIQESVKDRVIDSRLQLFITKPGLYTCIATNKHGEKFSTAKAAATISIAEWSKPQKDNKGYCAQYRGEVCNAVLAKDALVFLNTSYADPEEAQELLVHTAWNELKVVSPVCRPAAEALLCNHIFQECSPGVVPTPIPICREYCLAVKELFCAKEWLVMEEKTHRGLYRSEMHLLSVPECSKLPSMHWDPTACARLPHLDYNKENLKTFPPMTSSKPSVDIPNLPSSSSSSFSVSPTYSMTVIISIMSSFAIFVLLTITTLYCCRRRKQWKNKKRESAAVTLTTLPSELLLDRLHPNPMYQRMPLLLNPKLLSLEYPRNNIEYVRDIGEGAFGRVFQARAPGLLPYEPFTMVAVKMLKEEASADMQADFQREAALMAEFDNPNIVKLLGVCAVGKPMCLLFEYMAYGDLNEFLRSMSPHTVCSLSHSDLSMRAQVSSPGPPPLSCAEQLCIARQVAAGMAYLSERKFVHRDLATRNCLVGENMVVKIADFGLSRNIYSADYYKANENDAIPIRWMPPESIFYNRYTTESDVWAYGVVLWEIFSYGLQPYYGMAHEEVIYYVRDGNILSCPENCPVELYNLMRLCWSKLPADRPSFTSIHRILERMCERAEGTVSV

CC(C)(C)c1nc2c3ccc(F)cc3c3c(=O)[nH]ccc3c2[nH]1
residual activity ([1]; compound 10.0 µM): 83%
residual activity ([2]; compound 10.0 µM): 101%

Cc1n[nH]c2c1c(=O)n(CCCN)c1ccc(Cl)cc21
residual activity ([3]; compound 1.0 µM): 91%
residual activity ([4]; compound 1.0 µM): 96%
residual activity ([5]; compound 1.0 µM): 21%
residual activity ([1]; compound 1.0 µM): 95%
residual activity ([6]; compound 1.0 µM): 96%
residual activity ([7]; compound 1.0 µM): 90%
residual activity ([8]; compound 1.0 µM): 20%
residual activity ([2]; compound 1.0 µM): 110%
residual activity ([9]; compound 1.0 µM): 104%
residual activity ([10]; compound 1.0 µM): 138%
residual activity ([11]; compound 1.0 µM): 99%
residual activity ([12]; compound 1.0 µM): 108%
residual activity ([13]; compound 1.0 µM): 46%
residual activity ([14]; compound 1.0 µM): 85%
residual activity ([15]; compound 1.0 µM): 104%
residual activity ([16]; compound 1.0 µM): 78%
residual activity ([17]; compound 1.0 µM): 90%
residual activity ([18]; compound 1.0 µM): 18%
residual activity ([19]; compound 1.0 µM): 4%
residual activity ([20]; compound 1.0 µM): 86%
residual activity ([21]; compound 1.0 µM): 50%
residual activity ([22]; compound 1.0 µM): 108%
residual activity ([23]; compound 1.0 µM): 74%
residual activity ([24]; compound 1.0 µM): 105%
residual activity ([25]; compound 1.0 µM): 56%
residual activity ([26]; compound 1.0 µM): 77%
residual activity ([27]; compound 1.0 µM): 113%
residual activity ([28]; compound 1.0 µM): 95%
residual activity ([29]; compound 1.0 µM): 99%
residual activity ([30]; compound 1.0 µM): 106%

O=C(NCCCNc1nc(Nc2cccc(NC(=O)N3CCCC3)c2)ncc1I)c1cccs1
residual activity ([3]; compound 1.0 µM): 89%
residual activity ([4]; compound 1.0 µM): 89%
residual activity ([5]; compound 1.0 µM): 85%
residual activity ([31]; compound 1.0 µM): 112%
residual activity ([1]; compound 1.0 µM): 94%
residual activity ([6]; compound 1.0 µM): 93%
residual activity ([7]; compound 1.0 µM): 103%
residual activity ([32]; compound 1.0 µM): 109%
residual activity ([8]; compound 1.0 µM): 53%
residual activity ([33]; compound 1.0 µM): 100%
residual activity ([2]; compound 1.0 µM): 107%
residual activity ([9]; compound 1.0 µM): 108%
residual activity ([10]; compound 1.0 µM): 99%
residual activity ([11]; compound 1.0 µM): 96%
residual activity ([12]; compound 1.0 µM): 97%
residual activity ([13]; compound 1.0 µM): 31%
residual activity ([14]; compound 1.0 µM): 85%
residual activity ([34]; compound 1.0 µM): 73%
residual activity ([15]; compound 1.0 µM): 0%
residual activity ([16]; compound 1.0 µM): 63%
residual activity ([17]; compound 1.0 µM): 113%
residual activity ([18]; compound 1.0 µM): 12%
residual activity ([35]; compound 1.0 µM): 103%
residual activity ([36]; compound 1.0 µM): 10%
residual activity ([19]; compound 1.0 µM): 8%
residual activity ([20]; compound 1.0 µM): 14%
residual activity ([21]; compound 1.0 µM): 42%
residual activity ([22]; compound 1.0 µM): 99%
residual activity ([23]; compound 1.0 µM): 77%
residual activity ([37]; compound 1.0 µM): 72%
residual activity ([24]; compound 1.0 µM): 102%
residual activity ([25]; compound 1.0 µM): 75%
residual activity ([26]; compound 1.0 µM): 110%
residual activity ([27]; compound 1.0 µM): 82%
residual activity ([28]; compound 1.0 µM): 117%
residual activity ([29]; compound 1.0 µM): 114%
residual activity ([38]; compound 1.0 µM): 99%
residual activity ([39]; compound 1.0 µM): 3%
residual activity ([30]; compound 1.0 µM): 111%
residual activity ([40]; compound 1.0 µM): 15%
residual activity ([41]; compound 1.0 µM): 103%

COc1ccc(C#Cc2ccc3ncc4ncn(-c5ccc(CCN)cc5)c4c3c2)cc1
residual activity ([3]; compound 10.0 µM): 99%
residual activity ([4]; compound 10.0 µM): 84%
residual activity ([5]; compound 10.0 µM): 47%
residual activity ([31]; compound 10.0 µM): 51%
residual activity ([1]; compound 10.0 µM): 75%
residual activity ([6]; compound 10.0 µM): 3%
residual activity ([7]; compound 10.0 µM): 26%
residual activity ([32]; compound 10.0 µM): 90%
residual activity ([8]; compound 10.0 µM): 32%
residual activity ([33]; compound 10.0 µM): 108%
residual activity ([2]; compound 10.0 µM): 82%
residual activity ([9]; compound 10.0 µM): 104%
residual activity ([10]; compound 10.0 µM): 18%
residual activity ([11]; compound 10.0 µM): 56%
residual activity ([12]; compound 10.0 µM): 77%
residual activity ([13]; compound 10.0 µM): 4%
residual activity ([14]; compound 10.0 µM): 73%
residual activity ([34]; compound 10.0 µM): 1%
residual activity ([15]; compound 10.0 µM): 8%
residual activity ([16]; compound 10.0 µM): 13%
residual activity ([17]; compound 10.0 µM): 58%
residual activity ([18]; compound 10.0 µM): 25%
residual activity ([35]; compound 10.0 µM): 15%
residual activity ([36]; compound 10.0 µM): 66%
residual activity ([19]; compound 10.0 µM): 66%
residual activity ([20]; compound 10.0 µM): 6%
residual activity ([21]; compound 10.0 µM): 23%
residual activity ([22]; compound 10.0 µM): 96%
residual activity ([23]; compound 10.0 µM): 51%
residual activity ([37]; compound 10.0 µM): 99%
residual activity ([24]; compound 10.0 µM): 50%
residual activity ([25]; compound 10.0 µM): 15%
residual activity ([26]; compound 10.0 µM): 109%
residual activity ([27]; compound 10.0 µM): 73%
residual activity ([28]; compound 10.0 µM): 54%
residual activity ([29]; compound 10.0 µM): 86%
residual activity ([38]; compound 10.0 µM): 88%
residual activity ([39]; compound 10.0 µM): 11%
residual activity ([30]; compound 10.0 µM): 98%
residual activity ([40]; compound 10.0 µM): 18%
residual activity ([41]; compound 10.0 µM): 4%
